The test system of this assay is nursery piglets. Nature of the assay: Feeding study in weaned nursery piglets. The assay is classed as in vivo, pig. On the procedure:
The test materials used in the study were the Souroubea gilgii and purified betulinic acid. The Souroubea gigli plant samples (labelled SS for Souroubea sp.) were harvested from the canals in Tortuguero, Costa Rica. The samples were chipped, dried and powdered. Samples were dried overnight in a commercial plant drier at 35° C. and ground to 1 mm mesh.
The objective of the study was to investigate the production performance and stress related responses in nursery piglets that were fed a supplemented of either dried Souroubea gilgii plant material (SS) or one of its active anxiolytic compounds, purified betulinic acid (BA). The following parameters were evaluated: (1) plasma levels of Acute Phase Proteins (APP) and cortisol, (2) behavioral and stress related aggressive interactions and injuries (aggressive pushing, number of fights and the duration of fights in seconds), (3) production performance parameters (average daily gain (ADG), feed intake, feed efficiency (kg feed/kg body weight gain)) and (4) health evaluation (incidence of disease, disease treatments and deaths).
The study included 300 piglets that were 21 days of age at the start of the experiment (day of weaning and first day of treatment). The piglets were treated at days 0 and 21 and monitored over a 39 day period. The pigs were 60 days of age at the end of the study. Pigs were randomly assigned to one of five treatment groups, with 60 pigs in each group: (1) Group A. untreated control, (2) Group B. 0.5 mg BA/kg body weight, (3) Group C. 1 mg BA/kg body weight, (4) Group D. 2 mg BA/kg body weight and (5) Group E. SS group, 500 mg ground SS leaves/kg body weight (BA concentration equivalent to 0.5 mg BA/kg body weight).
Blood samples from 8 pigs in each treatment group were drawn on days 0, 2, 7, 14, 21 and 39 for a total of 240 blood samples, to determine plasma APP and cortisol levels. The same pigs from each treatment group were used for each blood sample day. Pigs were also weighed and feed intake was measured on these days to calculate performance parameters.

For `C=C(C)[C@@H]1CC[C@]2(C(=O)O)CC[C@]3(C)[C@H](CC[C@@H]4[C@@]5(C)CC[C@H](O)C(C)(C)[C@@H]5CC[C@]43C)[C@@H]12` [BA, betulinic acid], under “2 mg/kg (Group D)”, the number of wounds result was “appeared to reduce”. For the same compound, the “aggressive behavior and extent of injuries” value (BA doses below 2 mg/kg) is recorded as “little effect”. The plasma cortisol levels result (day 2, Group C 1 mg/kg BA, vs Groups A and B, p<0.01) is recorded as “significantly lower”; the plasma cortisol levels result (day 2, Group D 2 mg/kg BA, vs Groups A and B, p<0.01) is reported as “significantly lower”; the plasma cortisol levels entry (days 7 and 14, Group D 2 mg BA/kg, vs Group A, p<0.05) is “significantly lower”; the plasma cortisol levels result (first 14 days post-weaning, 2 mg BA/kg) was “significantly reduced”. The “dose required to reduce plasma cortisol in the first days after weaning” value (piglets) amounted to 1 mg BA/kg.

Source of the values: patent US10004773B2, “Plant compositions and methods and uses thereof for treating elevated glucocorticoid related disorders, and anxiety” (University of Ottawa, priority 2012, dated 2018).
